Measured values from ChEMBL document CHEMBL3351493, “Beta-aminoketones as prodrugs for selective irreversible inhibitors of type-1 methionine aminopeptidases” (Bioorg Med Chem Lett, 2014).
pIC50: −log10 of the molar value. The source made the active and inactive calls. No cut-off for these calls is given here.

Tests used:
[1] = target: Methionine aminopeptidase 2 (Homo sapiens, UniProt P50579); details: sf9
Description: Inhibition of human MetAP-2 expressed in Sf9 cells incubated for 60 mins before MGMM substrate addition by fluorescence assay

Ca-Ski = experiment: Cytotoxicity against human CaSki cells at 1.6 to 100 ug/ml after 72 hrs by crystal violet assay; format: functional, cell-based
Escherichia coli = experiment: Antimicrobial activity against Escherichia coli BL21(DE3) assessed as inhibition of bacterial growth at 200 uM incubated at 37 degC for 7 hrs; format: functional; details: BL21-DE3, 7 h
MeWo = experiment: Cytotoxicity against human MeWo cells at 1.6 to 100 ug/ml after 72 hrs by crystal violet assay; format: functional, cell-based
Calu-6 = experiment: Cytotoxicity against human Calu6 cells at 1.6 to 100 ug/ml after 72 hrs by crystal violet assay; format: functional, cell-based
CAPAN-1 = experiment: Cytotoxicity against human Capan1 cells at 1.6 to 100 ug/ml after 72 hrs by crystal violet assay; format: functional, cell-based
A-431 = experiment: Cytotoxicity against human A431 cells at 1.6 to 100 ug/ml after 72 hrs by crystal violet assay; format: functional, cell-based
[2] = Half life assessed as decomposition into amines and unsaturated ketones at 250 uM in 50 mM Tris/maleate pH 7.5 buffer by HPLC method; format: physicochemical; details: Tris/maleate buffer, pH 7.5
A 172 = experiment: Cytotoxicity against human A172 cells at 1.6 to 100 ug/ml after 72 hrs by crystal violet assay; format: functional, cell-based
[3] = Cytotoxicity against human Flow 2002 cells at 1.6 to 100 ug/ml after 72 hrs by crystal violet assay; format: cell-based; details: flow 2002, 72 h
SW707 = experiment: Cytotoxicity against human SW707 cells at 1.6 to 100 ug/ml after 72 hrs by crystal violet assay; format: functional, cell-based
[4] = target: Methionine aminopeptidase (Staphylococcus aureus (strain COL), UniProt Q5HEN6); experiment: Inhibition of N-terminal poly-His-tagged Staphylococcus aureus COL MetAP expressed in Escherichia coli BL21(DE3) incubated for 30 mins before MGMM substrate addition by fluorescence assay; design: species or system Staphylococcus aureus subsp. aureus COL; details: read-out: IC50
HaCaT = experiment: Cytotoxicity against human HaCaT cells at 1.6 to 100 ug/ml after 72 hrs by crystal violet assay; format: cell-based
[5] = target: T1, Methionine aminopeptidase (Escherichia coli K-12, UniProt P0AE18); experiment: Inhibition of C-terminal poly-His-tagged Escherichia coli MetAP expressed in Escherichia coli BL21(DE3) incubated for 30 mins before MGMM substrate addition by fluorescence assay; details: read-out: IC50
T1 sequence (P0AE18 whole entry): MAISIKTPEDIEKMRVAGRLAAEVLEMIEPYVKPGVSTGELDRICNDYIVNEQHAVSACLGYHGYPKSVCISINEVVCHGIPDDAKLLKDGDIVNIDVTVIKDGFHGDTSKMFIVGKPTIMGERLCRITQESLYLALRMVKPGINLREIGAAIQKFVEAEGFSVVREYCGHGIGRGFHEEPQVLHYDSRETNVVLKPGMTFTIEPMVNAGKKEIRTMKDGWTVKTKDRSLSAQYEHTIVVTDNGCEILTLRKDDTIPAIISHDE

BT-474 = experiment: Cytotoxicity against human BT474 cells at 1.6 to 100 ug/ml after 72 hrs by crystal violet assay; format: functional, cell-based

Chain of Methionine aminopeptidase 2 (P50579 whole entry): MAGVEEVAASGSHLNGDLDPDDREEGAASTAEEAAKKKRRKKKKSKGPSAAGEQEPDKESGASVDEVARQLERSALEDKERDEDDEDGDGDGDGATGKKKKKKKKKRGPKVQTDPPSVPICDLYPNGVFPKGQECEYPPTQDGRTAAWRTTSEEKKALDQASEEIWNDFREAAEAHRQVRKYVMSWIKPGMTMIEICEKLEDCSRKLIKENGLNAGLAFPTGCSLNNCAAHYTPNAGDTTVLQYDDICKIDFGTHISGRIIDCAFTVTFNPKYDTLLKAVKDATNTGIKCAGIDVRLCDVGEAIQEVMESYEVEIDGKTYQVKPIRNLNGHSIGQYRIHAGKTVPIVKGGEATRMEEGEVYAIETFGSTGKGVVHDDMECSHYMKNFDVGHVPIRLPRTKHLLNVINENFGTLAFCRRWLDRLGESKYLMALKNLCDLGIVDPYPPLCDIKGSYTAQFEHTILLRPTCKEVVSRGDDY

SMILES	IC50 [1]	half-life at 250 µM [2]	pIC50 [4]	pIC50 [5]	Activity (Ca-Ski)	inhibition at 200 µM (Escherichia coli)	Activity (MeWo)	Activity (Calu-6)	Activity (CAPAN-1)	Activity (A-431)	Activity (A 172)	Activity [3]	Activity (SW707)	Activity (HaCaT)	Activity (BT-474)
C=C1Cc2ccc(C)cc2C1=O	Not Active			6.10	Active		Active	Active	Active	Active	Active	Toxic	Active	Toxic	Active
C=C1Cc2cc(Cl)ccc2C1=O	Not Active			6.64	Active	27%	Active	Active	Active	Active	Active	Toxic	Active	Toxic	Active
C=C1Cc2cc(Br)ccc2C1=O	Not Active			6.72	Active	21%	Active	Active	Active	Active	Active	Toxic	Active	Toxic	Active
C=C1Cc2cc(C)ccc2C1=O	Not Active		4.88	6.40	Active	100%	Active	Active	Active	Active	Active	Toxic	Active	Toxic	Active
C=C1Cc2ccc(OC)cc2C1=O	Not Active			6.17	Active		Active	Active	Active	Active	Active	Toxic	Active	Toxic	Active
C=C1Cc2cc(OC)ccc2C1=O	Not Active			6.01	Active		Active	Active	Active	Active	Active	Toxic	Active	Toxic	Active

Further lines, with some results ahead:

IC50 [1]	half-life at 250 µM [2]	pIC50 [4]	pIC50 [5]	SMILES	Activity (Ca-Ski)	inhibition at 200 µM (Escherichia coli)	Activity (MeWo)	Activity (Calu-6)	Activity (CAPAN-1)	Activity (A-431)	Activity (A 172)	Activity [3]	Activity (SW707)	Activity (HaCaT)	Activity (BT-474)
Not Active	6 min	5.11	6.14	CN(C)CC1Cc2cc(Br)ccc2C1=O.Cl (stereo unspecified)	Active	57%	Active	Active	Active	Active	Active	Toxic	Active	Toxic	Active
Not Active	7 min	5.15	6.08	CN(C)CC1Cc2cc(Cl)ccc2C1=O.Cl (stereo unspecified)	Active	71%	Active	Active	Active	Active	Active	Toxic	Active	Toxic	Active
Not Active	16 min	4.60	5.51	Cl.O=C1c2ccccc2CC1CN1CCCCC1 (stereo unspecified)	Active	50%	Active	Active	Active	Active	Active	Toxic	Active	Toxic	Active
